Source: patent US20210261964A1, “LIPID PARTICLE CONTAINING A-TYPE CpG OLIGODEOXYNUCLEOTIDE” (THE RESEARCH FOUNDATION FOR MICROBIAL DISEASES OF OSAKA …, priority 2018, published 2021)

Tests used:
[1] = system: Bone marrow cells from WT, TLR7KO, and TLR9KO mice; test: TLR9 dependency: IL-6 production in bone marrow cells, ELISA; format: cell-based, mouse; conditions: R848 1 ug/mL, D35 10 uM=63.4 ug/mL, nanoparticles 1 μg/mL in terms of D35, 24 hours; for IL-6 production in TLR7KO: TLR7KO bone marrow cells; for IL-6 production in TLR9KO: TLR9KO bone marrow cells
Description: (§1) The content of each lipid per 100 mass % of lipids constituting the lipid particles is as follows: DOTAP: 50 mass %, DPPC: 19.5 mass %, cholesterol: 30 mass %, and DSPE-PEG (2 k (PEG chain length))-OMe: 0.5 mass % or 3.0 mass %. The ratio (N/P) of the number of nitrogen atoms (N) in the lipids constituting the lipid particles to the number of phosphorus atoms (D35) (P) in the nucleic acid was set to 3. A D35-containing aqueous solution and a lipid-containing ethanol solution were mixed using the NanoAssemblr (produced by Precision NanoSystems) to obtain lipid nanoparticles, which were then dialyzed against a 5% glucose aqueous solution. In this Test Example and the following Test Examples, the D35-containing lipid nanoparticles obtained here were used.
(§2) Bone marrow cells were prepared from each of WT, TLR7KO, and TLR9KO mice, and stimulated with R848 (TLR7/8 agonist; medium final concentration: 1 ug/mL), D35 (TLR9 agonist; medium final concentration: 10 uM=63.4 ug/mL), and D35-containing lipid nanoparticles (medium final concentration in terms of D35: 1 μg/mL), followed by culturing for 24 hours. Then, the amounts of IFN-I and IL-6 in the culture supernatant were quantified by a biological activity measurement method using murine type I IFNs sensor cells (B16-Blue IFN-α/a cells) and by the usual ELISA method, respectively.

[2] = system: MC38 mouse colorectal cancer-derived tumor; test: MC38 mouse colorectal cancer-derived tumor model, tumor size; format: in vivo; conditions: Test Example 6, FIG. 6: intratumoral, days 9, 11, 13, 15, 17; 4.5 ug/shot D35; effect on days 17 and 21
Protocol: On days 9, 11, 13, 15, and 17 after subcutaneous transplantation of MC38 (1×10^6 cells), a pharmaceutical agent (D35 or D35-containing lipid nanoparticles (DSPE-PEG-OMe content: 0.5 mass %)) was intratumorally administered 5 times in total. Then, the tumor size was measured. The amount of D35 nucleic acid administered at one time was adjusted to 4.5 ug/shot.
On days 9, 11, 13, 15, and 17 after subcutaneous transplantation of MC38 (1×10^6 cells), D35-containing lipid nanoparticles (DSPE-PEG-OMe content: 0.5 mass %) were intratumorally administered 5 times in total. Then, the tumor size was measured. Further, in order to deplete CD8T cells, anti-CD8a antibody (100 ug/shot) or control antibody (100 ug/shot) was intraperitoneally administered on days 6 and 13 after subcutaneous transplantation. The amount of D35 nucleic acid administered at one time was adjusted to 4.5 ug/shot.
On days 9, 11, 13, 15, and 17 after subcutaneous transplantation of MC38 (1×10^6 cells), a pharmaceutical agent (D35 or D35-containing lipid nanoparticles (DSPE-PEG-OMe content: 0.5 mass %)) was administered intravenously 5 times in total. Then, the tumor size was measured. […]
On days 9, 11, 13, 15, and 17 after subcutaneous transplantation of MC38 (1×10^6 cells), D35-containing lipid nanoparticles (DSPE-PEG-OMe content: 0.5 mass %) were administered intravenously 5 times in total. Then, the tumor size was measured. […]

[3] = system: Bone marrow cells from WT, TLR7KO, and TLR9KO mice; test: TLR9 dependency: IFN-I production in bone marrow cells, B16-Blue sensor cell bioassay; format: cell-based, mouse; conditions: R848 1 ug/mL; 24 hours
Description: as §1, §2

What does the source list for “G_G_TGCATCGATGCAGGGG_G_G (DNA GGTGCATCGATGCAGGGGGG; DNA, linkages s2 o15 s2 (s phosphorothioate, o phosphodiester), methylation of C not given here; formulated in lipid nanoparticles) [D35, A-type CpG oligodeoxynucleotide, TLR9 agonist, not complexed with lipids]”?
IL-6 production in TLR7KO [1]: did not disappear; IL-6 production in TLR9KO [1]: disappeared almost completely; tumor size [2]: No effect was observed

How did the IFN-I production [3] turn out when `CCOCc1nc2c(N)nc3ccccc3c2n1CC(C)(C)O` [R848] was run?
Its IFN-I production is “very weak”.

What about the “IL-6 production in TLR7KO” value [1] of the same compound?
Its value is “disappeared”.

And the “IL-6 production in TLR9KO” value [1]?
The value was “did not disappear”.
